{"source": "paper PMC4373826", "about": "“Antiviral Effect of Methylated Flavonol Isorhamnetin against Influenza” (PLoS ONE, 2015)", "system": "ERK", "test": "Western blot for ERK phosphorylation", "assay_type": "cell-based, canine", "details": "50 μM", "method": "To prepare whole-cell extracts, cells were washed 3 times using cold PBS, scraped from the dishes, and suspended in protein extraction buffer containing 1% Triton X-100 (Amresco), 100 mM Tris-HCl, 10 mM NaCl, 10% glycerol, 1 mM sodium orthovanadate (Sigma-Aldrich), 50 mM sodium fluoride (Sigma-Aldrich), and 1 mM phenylmethylsulfonyl fluoride (PMSF; Sigma-Aldrich). After incubation on ice for 30 min, lysates were centrifuged and proteins in the supernatants were quantified using the Bradford Protein Assay Reagent (Bio-Rad). Protein samples were separated via 10% SDS-PAGE and transferred to nitrocellulose membranes ([…]; Protran, Newton, NJ, USA). The membranes were blocked using 5% nonfat dry milk and 0.1% Tween-20 in Tris-buffered saline and probed with the primary antibody. Western blotting was performed using antibodies against t-ERK, p-ERK, actin (Santa Cruz Biotechnology, Dallas, TX, USA), and LC3B (Novus Biologicals, San Diego, CA, USA), as well as anti-mouse, anti-rabbit, and anti-goat IgG-peroxidase-conjugated secondary antibodies (Santa Cruz Biotechnology) and an enhanced chemiluminescence (ECL) kit (Amersham Biosciences, Piscataway, NJ, USA)."}
{"compound": "COc1cc(-c2oc3cc(O)cc(O)c3c(=O)c2O)ccc1O", "note": "[Isorhamnetin, isorhamnetin]", "values": [{"measurement": "virus-induced ERK phosphorylation", "result": "significantly suppressed"}]}
